{"source": "ChEMBL document CHEMBL1146557", "about": "“An antiinflammatory galactolipid from rose hip (Rosa canina) that inhibits chemotaxis of human peripheral blood neutrophils in vitro” (J Nat Prod, 2003)", "key": {"[1]": {"experiment": "Inhibition of chemotaxis in human polymorphonuclear leukocytes assessed as inhibition of migration towards zymosan-activated human serum at 0.1 ug/ml after 30 mins by Boyden chamber technique", "format": "functional", "settings": "0.5 h"}, "[2]": {"experiment": "Inhibition of chemotaxis in human polymorphonuclear leukocytes assessed as inhibition of migration towards zymosan-activated human serum at 1 ug/ml after 30 mins by Boyden chamber technique", "format": "functional", "settings": "0.5 h"}, "[3]": {"experiment": "Inhibition of chemotaxis in human polymorphonuclear leukocytes assessed as inhibition of migration towards zymosan-activated human serum at 50 ug/ml after 30 mins by Boyden chamber technique", "format": "functional", "settings": "0.5 h"}, "[4]": {"experiment": "Inhibition of chemotaxis in human polymorphonuclear leukocytes assessed as inhibition of migration towards zymosan-activated human serum at 100 ug/ml after 30 mins by Boyden chamber technique", "format": "functional", "settings": "0.5 h"}, "[5]": {"experiment": "Inhibition of chemotaxis in human polymorphonuclear leukocytes assessed as inhibition of migration towards zymosan-activated human serum at 10 ug/ml after 30 mins by Boyden chamber technique", "format": "functional", "settings": "0.5 h"}, "[6]": {"experiment": "Cytotoxicity against human polymorphonuclear leukocyte assessed as cell viability at 50 to 100 ug/ml by trypan blue exclusion method", "settings": "polymorphonuclear leukocytes, read-out: INH"}}, "data": [{"smiles": "CC/C=C\\C/C=C\\C/C=C\\CCCCCCCC(=O)OC[C@H](CO[C@@H]1O[C@H](CO)[C@H](O)[C@H](O)C1O)OC(=O)CCCCCCC/C=C\\C/C=C\\C/C=C\\CC", "note": "(single isomer, unassigned)", "values": [{"measurement": "inhibition at 0.1 µg/mL", "setting": "[1]", "value": 7, "unit": "%"}, {"measurement": "inhibition at 1 µg/mL", "setting": "[2]", "value": 64, "unit": "%"}, {"measurement": "inhibition at 50 µg/mL", "setting": "[3]", "value": 77, "unit": "%"}, {"measurement": "inhibition at 100 µg/mL", "setting": "[4]", "value": 82, "unit": "%"}, {"measurement": "inhibition at 10 µg/mL", "setting": "[5]", "value": 62, "unit": "%"}, {"measurement": "viability", "setting": "[6]", "value": 100, "unit": "%"}]}]}
